# According to patent US9663460B2, “Sulfur derivatives as chemokine receptor modulators” (ALLERGAN, INC., priority 2010, dated 2017):
# pIC50: −log10 of the molar value.
# Target: CCR2 (Homo sapiens (Human), UniProt P41597)
# Experiment: Calcium activity assayed on the FLIPR Tetra in HEK-Gqi5 cells stably expressing CCR2
# Format: cell-based
# Details: FLIPR Tetra calcium assay
# Description: HEK-Gqi5 cells stably expressing CCR2 were cultured in (DMEM high glucose, 10% FBS, 1% PSA, 400 μg/ml geneticin and 50 μg/ml hygromycin. Appropriate positive control chemokines (MCP-1, MIP1A or RANTES) was used as the positive control agonist for screening compound-induced calcium activity assayed on the FLIPR^Tetra. The drug plates were prepared in 384-well microplates using the EP3 and the MuItiPROBE robotic liquid handling systems. Compounds were synthesized and tested for CCR^2 activity.
# Chain of CCR2 (P41597 whole entry, species assumed): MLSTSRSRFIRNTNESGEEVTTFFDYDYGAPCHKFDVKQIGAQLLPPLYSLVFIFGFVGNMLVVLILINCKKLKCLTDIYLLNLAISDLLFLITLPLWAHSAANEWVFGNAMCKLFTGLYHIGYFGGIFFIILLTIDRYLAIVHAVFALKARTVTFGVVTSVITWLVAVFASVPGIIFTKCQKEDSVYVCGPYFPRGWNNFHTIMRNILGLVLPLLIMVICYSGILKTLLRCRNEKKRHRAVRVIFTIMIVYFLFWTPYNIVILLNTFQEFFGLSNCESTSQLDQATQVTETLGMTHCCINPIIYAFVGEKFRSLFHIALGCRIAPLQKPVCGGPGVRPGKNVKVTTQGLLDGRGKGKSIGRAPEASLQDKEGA
Structure (SMILES),CCR2 % ANTAGONISM [%],pIC50
"CN(C)C(=O)CCS(=O)(=O)c1ccc(Cl)cc1NS(=O)(=O)c1ccc(Cl)cc1F [3-[(4-chloro-2-{[(4-chloro-2-fluorophenyl)sulfonyl]amino}phenyl)sulfonyl]-N,N-dimethylpropanamide]",97,6.68
"CN(C)C(=O)CCSc1ccc(Cl)cc1NS(=O)(=O)c1ccc(Cl)cc1F [3-[(4-chloro-2-{[(4-chloro-2-fluorophenyl)sulfonyl]amino}phenyl)thio]-N,N-dimethylpropanamide]",78,6.11
C[S+]([O-])c1ccc(Cl)cc1NS(=O)(=O)c1cccc(Cl)c1F (stereo not shown) [3-chloro-N-[5-chloro-2-(methylsulfinyl)phenyl]-2-fluorobenzenesulfonamide],101,7.21
CS(=O)(=O)c1ccc(Cl)cc1NS(=O)(=O)c1cccc(Cl)c1F [3-chloro-N-[5-chloro-2-(methylsulfonyl)phenyl]-2-fluorobenzenesulfonamide],101,6.94
CSc1ccc(Cl)cc1NS(=O)(=O)c1cccc(Cl)c1F [3-chloro-N-[5-chloro-2-(methylthio)phenyl]-2-fluorobenzenesulfonamide],94,5.72
"CN(C)C(=O)CC[S+]([O-])c1ccc(Cl)cc1NS(=O)(=O)c1ccc(Cl)c(C(F)(F)F)c1 (stereo not shown) [3-{[4-chloro-2-({[4-chloro-3-(trifluoromethyl)phenyl]sulfonyl}amino)phenyl]sulfinyl}-N,N-dimethylpropanamide]",89,7.02
CC(C)NC(=O)CC[S+]([O-])c1ccc(Cl)cc1NS(=O)(=O)c1ccc(Cl)c(C(F)(F)F)c1 (stereo not shown) [3-{[4-chloro-2-({[4-chloro-3-(trifluoromethyl)phenyl]sulfonyl}amino)phenyl]sulfinyl}-N-isopropylpropanamide],93,5.75
NC(=O)CC[S+]([O-])c1ccc(Cl)cc1NS(=O)(=O)c1ccc(Cl)c(C(F)(F)F)c1 (stereo not shown) [3-{[4-chloro-2-({[4-chloro-3-(trifluoromethyl)phenyl]sulfonyl}amino)phenyl]sulfinyl}propanamide],99,6.10
"CN(C)C(=O)CCS(=O)(=O)c1ccc(Cl)cc1NS(=O)(=O)c1ccc(Cl)c(C(F)(F)F)c1 [3-{[4-chloro-2-({[4-chloro-3-(trifluoromethyl)phenyl]sulfonyl}amino)phenyl]sulfonyl}-N,N-dimethylpropanamide]",93,6.66
"CN(C)C(=O)CCSc1ccc(Cl)cc1NS(=O)(=O)c1ccc(Cl)c(C(F)(F)F)c1 [3-{[4-chloro-2-({[4-chloro-3-(trifluoromethyl)phenyl]sulfonyl}amino)phenyl]thio}-N,N-dimethylpropanamide]",80,6.30
CC(C)NC(=O)CCSc1ccc(Cl)cc1NS(=O)(=O)c1ccc(Cl)c(C(F)(F)F)c1 [3-{[4-chloro-2-({[4-chloro-3-(trifluoromethyl)phenyl]sulfonyl}amino)phenyl]thio}-N-isopropylpropanamide],59,5.99
"CN(C)C(=O)CCC[S+]([O-])c1ccc(Cl)cc1NS(=O)(=O)c1cc2ccccc2o1 (stereo not shown) [4-({2-[(1-benzofuran-2-ylsulfonyl)amino]-4-chlorophenyl}sulfinyl)-N,N-dimethylbutanamide]",54,–
"CN(C)C(=O)CCCS(=O)(=O)c1ccc(Cl)cc1NS(=O)(=O)c1cc2ccccc2o1 [4-({2-[(1-benzofuran-2-ylsulfonyl)amino]-4-chlorophenyl}sulfonyl)-N,N-dimethylbutanamide]",98,6.00
C[S+]([O-])c1ccc(Cl)cc1NS(=O)(=O)c1ccc(Br)cc1 (stereo not shown) [4-bromo-N-[5-chloro-2-(methylsulfinyl)phenyl]benzenesulfonamide],94,6.94
CS(=O)(=O)c1ccc(Cl)cc1NS(=O)(=O)c1ccc(Br)cc1 [4-bromo-N-[5-chloro-2-(methylsulfonyl)phenyl]benzenesulfonamide],84,6.39
CSc1ccc(Cl)cc1NS(=O)(=O)c1ccc(Br)cc1 [4-bromo-N-[5-chloro-2-(methylthio)phenyl]benzenesulfonamide],76,5.88
CC[S+]([O-])c1ccc(Cl)cc1NS(=O)(=O)c1ccc(Cl)c(C(F)(F)F)c1 (stereo not shown) [4-chloro-N-[5-chloro-2-(ethylsulfinyl)phenyl]-3-(trifluoromethyl)benzenesulfonamide],78,7.30

# Further lines, results first:
CCR2 % ANTAGONISM [%],pIC50,Structure (SMILES)
90,7.06,CCS(=O)(=O)c1ccc(Cl)cc1NS(=O)(=O)c1ccc(Cl)c(C(F)(F)F)c1 [4-chloro-N-[5-chloro-2-(ethylsulfonyl)phenyl]-3-(trifluoromethyl)benzenesulfonamide]
81,6.71,CCSc1ccc(Cl)cc1NS(=O)(=O)c1ccc(Cl)c(C(F)(F)F)c1 [4-chloro-N-[5-chloro-2-(ethylthio)phenyl]-3-(trifluoromethyl)benzenesulfonamide]
72,6.42,CC(C)Sc1ccc(Cl)cc1NS(=O)(=O)c1ccc(Cl)c(C(F)(F)F)c1 [4-chloro-N-[5-chloro-2-(isopropylthio)phenyl]-3-(trifluoromethyl)benzenesulfonamide]
103,7.07,C[S+]([O-])c1ccc(Cl)cc1NS(=O)(=O)c1ccc(Cl)cc1F (stereo not shown) [4-chloro-N-[5-chloro-2-(methylsulfinyl)phenyl]-2-fluorobenzenesulfonamide]
78,7.85,C[S+]([O-])c1ccc(Cl)cc1NS(=O)(=O)c1ccc(Cl)c(C(F)(F)F)c1 (stereo not shown) [4-chloro-N-[5-chloro-2-(methylsulfinyl)phenyl]-3-(trifluoromethyl)benzenesulfonamide]
91,7.21,C[S+]([O-])c1ccc(Cl)cc1NS(=O)(=O)c1ccc(Cl)cc1 (stereo not shown) [4-chloro-N-[5-chloro-2-(methylsulfinyl)phenyl]benzenesulfonamide]
98,6.77,CS(=O)(=O)c1ccc(Cl)cc1NS(=O)(=O)c1ccc(Cl)cc1F [4-chloro-N-[5-chloro-2-(methylsulfonyl)phenyl]-2-fluorobenzenesulfonamide]
90,7.19,CS(=O)(=O)c1ccc(Cl)cc1NS(=O)(=O)c1ccc(Cl)c(C(F)(F)F)c1 [4-chloro-N-[5-chloro-2-(methylsulfonyl)phenyl]-3-(trifluoromethyl)benzenesulfonamide]
98,6.81,CS(=O)(=O)c1ccc(Cl)cc1NS(=O)(=O)c1ccc(Cl)cc1 [4-chloro-N-[5-chloro-2-(methylsulfonyl)phenyl]benzenesulfonamide]
82,6.87,CSc1ccc(Cl)cc1NS(=O)(=O)c1ccc(Cl)c(C(F)(F)F)c1 [4-chloro-N-[5-chloro-2-(methylthio)phenyl]-3-(trifluoromethyl)benzenesulfonamide]
93,6.34,CSc1ccc(Cl)cc1NS(=O)(=O)c1ccc(Cl)c(C)c1 [4-chloro-N-[5-chloro-2-(methylthio)phenyl]-3-methylbenzenesulfonamide]
